Assay results published in patent publication US20110269790A1, “NOVEL THIENOPYRIDINES AS PHARMACOLOGICALLY ACTIVE AGENTS” (priority 2009, published 2011).

Legend:
Wistar rats [1] = assay: Cotton pellet granuloma (sub acute model); type: in vivo, rat; conditions: BN compounds 100 mg/kg, Indomethacin 5 mg/kg, daily for 7 days
Experimental: Wistar rats weighing between 180-220 gms were anaesthetized with ether. The skin at their back was shaved and disinfected with 70% alcohol according to D'Arcy et al., 1960). An incision was made in the lumbar region. Using a blunt forceps subcutaneous tunnel was formed and a sterilized cotton pellet was placed on both sides in scapular region. Standard 20 mg cotton pellets was weighed and sterilized for the study. Rats were grouped into 5 groups of 6 animals each. […] On 8th day rats in all groups were sacrificed with anesthetic ether. Pellets were removed and kept overnight for incubation at 37° C. Then pellets were dried at 60° C. until they reach constant weight. The wet weight of pellets was also recorded after sacrificing. The average weights of pellets of control group and other treated groups were calculated. The percent change of granuloma weight was calculated for all the test groups comparing with control group.

Wistar rats [2] = assay: Freund's complete adjuvant (FCA) induced arthritis; type: in vivo, rat; conditions: 17th day and 21st day, 100 mg/kg, vs arthritic control
[3] = Acute oral toxicity, main study in mice; conditions: both sexes, mouse, in vivo, single oral dose, read-out: Maximum tolerated dose
Experimental: In the preliminary sighting study, the effect of various dosed administered to single animals of each sex was investigated in a sequential manner. The sighting study generally yields information on the dose-toxicity relationship including an estimate of the minimum lethal dose. In the main study, the test article is administered to groups of 5 males and 5 female animals at one of the fixed doses (5, 50, 500 and 2000 mg/Kg). The dose is derived from the sighting study. It is immediately below that which is expected to result in mortality. If evident toxicity is not seen at the chosen dose level, the substance should be retested at the next higher dose level. If at the initial dose level, animals die, or a severe toxicity reaction requires removal of animals from the study for animal welfare reasons, the substance is retested at the next lower dose level. Consideration of data from the both sighting study and the main study enabled a judgment to be made on determination of maximum tolerated dose.
At least 10 animals (5 males and 5 females) for each species were used for dose level in this study. Animals were fasted overnight and test articles were administered as 1% gum acacia suspension orally. The dose used in this study is selected from one of four levels 5 mg/kg, 50 mg/kg, 500 mg/kg and 2000 mg/kg i.e. the dose that produced evident toxicity but not mortality in sighting study. […] Different biochemical and hematology parameters observed on “0’ day and on termination day .During main study physical parameters like feed consumption and body weight increase were also recorded. 5 males and females were taken, and toxicity study conducted for the compounds. […] Hematology and biochemical parameters were well and within normal range when compared with 0 day in rats and mice. Based on above observations synthetic compounds were safe upto 2000 mg/kg.

Wistar rats [4] = assay: Antidiabetic activity by starch loaded model; type: in vivo, rat; conditions: for % Increase in glucose, 30 min / Blood glucose level, 30 min: 30 min after starch; for % Increase in glucose, 30 min / Blood glucose level, 30 min / % Increase in glucose, 60 min / Blood glucose level, 60 min / % Increase in glucose, 90 min / Blood glucose level, 90 min / % Increase in glucose, 120 min / Blood glucose level, 120 min / Blood glucose level, 0 min: test compounds 100 mg/kg, Acarbose 10 mg/kg oral; for Blood glucose level, 30 min / Blood glucose level, 60 min / Blood glucose level, 90 min / Blood glucose level, 120 min / Blood glucose level, 0 min: in mg/dL (unit assumed); for % Increase in glucose, 60 min / Blood glucose level, 60 min: 60 min after starch; for % Increase in glucose, 90 min / Blood glucose level, 90 min: 90 min after starch; for % Increase in glucose, 120 min / Blood glucose level, 120 min: 120 min after starch; for Blood glucose level, 0 min: basal, prior to dosing
Text: Experimental Animals—Wistar rats of either sex were used for the present study. Animals selected for use in the study were of uniform age and body weight. A minimum of 40 rats, from which eventually 20 rats were selected. Their body weights were in the range of 150-180 gm. The health status of the animals was ascertained by a veterinary surgeon. […] Animals were acclimatized for at least two weeks prior to start of the study. The animals were provided with pellet diet manufactured by NIN, HYDERABAD, India and drinking water adlibitum.
Compound Preparation The required quantity of the synthetic compounds were weighed and made suspension with gum acacia (2%). The test compounds were administered to all rats by per oral route. Acarbose suspension was also prepared in gum acasia suspension and given by oral route.
Antidiabetic activity by Starch model: The method of Rao et al., 2009;Tiwari et al was employed. Animals were fasted over night (12 hrs). Basal blood glucose levels were estimated for all the animals prior to dosing in test and standard groups. This was designated as “0” min reading. […] After test compounds administration animals in all three groups received Starch aqueous solution (2 gm/kg body weight). Blood glucose levels were monitored at 30, 60, 90 and 120 min after the administration of Starch in all the three groups. The percentage of increase in, blood glucose levels was calculated with respect to the control group at each time point.

rats = assay: Ulcerogenic assay; type: in vivo, rat; conditions: BN compounds 200 mg/kg oral, Indomethacin 30 mg/kg; for Ulcer Score: arbitrary scale 0 (no lesions) to 4 (mucosa full of lesions); for Ulcer Incidence: fasted rats, six hours after dosing, n=4
Experimental: The method of Cashin et al., (1979) was employed. Food was withheld from the animals for 18 hours prior to the experiment. The fasted animals (n=4) received the compounds BN-4, BN-14 and BN-16 as gum acacia suspension by oral route at the dose of 100,200 mg/kg. Indomethacin control animals received the drug at the dose of 30 mg/kg. Six hours later, rats were killed and the stomachs removed and open along the lesser curvature. The opened stomach was washed with normal saline and observed for ulceration. Lesions on the mucosal surface was scored according to arbitrary scale: 0 No lesion; 0.5=hyperemia; 1=one or two lesions; 2=severe lesions; 3=very severe lesions; 4=Mucosal full of lesions (Bani et al., 2000). […] But indomethacin group animals show severe ulceration in stomach portion. More importantly, gastric ulcer, which is a common side effect of NSAIDS, was totally absent in stomach of compound treated rat group. Since enhanced leukotrine production plays a role in development of gastrointestinal damage from cyclooxygenase inhibition by NSAIDS (Rainsford et al., 1993; Gyomber et al., 1996) and all the compounds have shown potent inhibitory action on 5-LOX inhibition (Arachidonic induced paw edema model) along with cox inhibition (Carrageenan induced paw edema model), the gastric ulcer sparing effect of compounds may be partly due to their effect on 5-LOX inhibition.

| Compound | % Inhibition (granuloma dry weight) (Wistar rats [1]) [%] | % Inhibition (granuloma wet weight) (Wistar rats [1]) [%] | Granuloma Dry Weight (Wistar rats [1]) [mg] | Granuloma Wet Weight (Wistar rats [1]) [mg] | Arthritic scoring (Wistar rats [2]) | MTD at 14 days [3] [mg/kg] | Reduction in percentage increase in blood glucose levels (Wistar rats [4]; 100 mg/kg oral, starch 2 gm/kg, 30-120 min, vs diabetic control) | % Increase in glucose, 30 min (Wistar rats [4]) [%] | Blood glucose level, 30 min (Wistar rats [4]) | % Increase in glucose, 60 min (Wistar rats [4]) [%] | Blood glucose level, 60 min (Wistar rats [4]) | % Increase in glucose, 90 min (Wistar rats [4]) [%] | Blood glucose level, 90 min (Wistar rats [4]) | % Increase in glucose, 120 min (Wistar rats [4]) [%] | Blood glucose level, 120 min (Wistar rats [4]) | Blood glucose level, 0 min (Wistar rats [4]; starch 2 gm/kg) | Ulcer Score (rats) | Ulcer Incidence (rats) |
| --- | --- | --- | --- | --- | --- | --- | --- | --- | --- | --- | --- | --- | --- | --- | --- | --- | --- | --- |
| Cc1sc2nc3c(c(N)c2c1C)CCCCC3 [BN-4, 2,3-dimethyl-6,7,8,9-tetrahydro-5H-cyclohepta[b]thieno[3,2-e]pyridin-4-amine] | 28.42 ± 3.09 | 22.23 ± 1.20 | 83.33 ± 3.59 | 366.08 ± 3.50 | significantly reduced | > 2000 |  |  |  |  |  |  |  |  |  |  |  |  |
| Nc1c2c(nc3sc4c(c13)CCC4)CCC2 [BN-13, 1,2,3,6,7,8-hexahydrocyclopenta [b]cyclopenta[4,5] thieno[3,2-e]pyridin-9-amine] |  |  |  |  |  |  | greatest inhibitory activity | 32.75 | 108.37 | 35.89 | 110.82 | 30.53 | 106.50 | 30.27 | 106.30 | 81.67 |  |  |
| Nc1c2c(nc3sc4c(c13)CCC4)CCCC2 [BN-14, 2,3,6,7,8,9-Hexahydro-1H-cyclopenta[4,5]thieno[2,3-b]quinolin-10-amine] | 25.48 ± 1.89 | 20.21 ± 0.58 | 86.75 ± 2.20 | 374.42 ± 4.69 | significantly reduced | 1250 |  | 37.65 | 103.83 | 36.02 | 102.80 | 45.00 | 109.33 | 32.21 | 99.83 | 75.5 | 0.37 ± 0.10 | ¼ |
| CC1CCc2c(nc3sc4c(c3c2N)CCC4)C1 (centres unmarked) [BN-15, 7-Methyl-2,3,6,7,8,9-hexahydro-1H-cyclopenta[4,5]thieno[2,3-b]quinolin-10-amine] |  |  |  |  |  |  |  | 42.13 | 115.50 | 51.64 | 123.03 | 39.76 | 113.75 | 42.80 | 116.05 | 81.45 |  |  |
| Nc1c2c(nc3sc4c(c13)CCC4)CCCCC2 [BN-16, 1,2,3,6,7,8,9,10-Octahydrocyclohepta[b]cyclopenta[4,5]thieno[3,2-e]pyridine-11-amine] | 27.70 ± 1.82 | 23.09 ± 1.59 | 84.16 ± 2.11 | 365.08 ± 6.39 | significantly reduced | > 2000 |  |  |  |  |  |  |  |  |  |  | 0.25 ± 0.12 | 0/4 |
| Nc1c2c(nc3sc4c(c13)CCC4)CCCCCC2 [BN-17, 2,3,6,7,8,9,10,11-Octahydro-1H-cycloocta [b]cyclopenta[4,5]thieno[3,2-e]pyridin-12-amine] |  |  |  |  |  |  |  | 51.74 | 124.60 | 52.35 | 125.13 | 49.67 | 123.13 | 49.64 | 122.80 | 82.40 |  |  |
| COc1ccc2c(c1)c(CC(=O)O)c(C)n2C(=O)c1ccc(Cl)cc1 [Indomethacin, reference compound] | 32.78 ± 1.88 | 26.93 ± 2.24 | 78.25 ± 2.19 | 338.01 ± 10.38 |  |  |  |  |  |  |  |  |  |  |  |  | 2.25 ± 0.41 | 4/4 |
